Measured values from patent US5162231A, “Method of using 5,10,15,20-tetrakis(carboxyphenyl)porphine for detecting cancers of the lung” (priority 1990, dated 1992).

Tests used:
malignant sputum cells = test: Porphyrin uptake in sputum cells evaluated with a fluorescent microscope; assay type: cell-based, human
Excerpt: Five parameters were investigated for this study: (1) the effect of various sputum processing procedures on the uptake of porphyrin in sputum cells, (2) the comparison of TCPP to three other porphyrins that are known for their uptake by tumors, (3) the time required for optimal uptake of the porphyrin in sputum cells, (4) the uptake of porphyrin in test and control sputum samples, and (5) the verification that TCPP was localizing in malignant sputum cells. In each of these investigations, the uptake of porphyrin in sputum cells was evaluated with a fluorescent microscope. Nonmetallated porphyrin fluoresces at approximately 650 nm. Sputum samples were evaluated for (1) the number of cells in the sputum samples which fluoresced, and (2) the intensity of the porphyrin fluorescence.
Sputum samples require processing in order to produce a single cell suspension of lung cells. Sputum samples from test and control patients were collected and processed with alcohol and carbowax, alcohol only, phosphate-buffered saline (PBS), or left unprocessed. All samples were mixed with a blender for 1 minute following the addition of the processing mixture and then placed into petri dishes containing various porphyrins. […] Cells in the unprocessed sputum samples remained attached to the bottom of the petri dish with only a few cells free of the mucous.
Four porphyrins selected for their known affinity for neoplastic cells were tested for their ability to detect malignant sputum cells. Sputum cells obtained from each of the four processing procedures set forth above were treated with one of hematoporphyrin derivative, HPD, 5,10,15,20-tetrakis(4-carboxyphenyl)porphine, TCPP, 5,10,15,20-tetrakis(4-sulfonatophenyl)porphine, TTPS, or uroporphyrin, URO. In all investigations, the porphyrins were dissolved in tissue culture medium at a concentration of 200 μg/ml. Following the addition of porphyrin, each sample was incubated at 37° C. for a specific length of time.
Following the incubation period, each sputum sample was examined for porphyrin uptake with a fluorescent microscope. The background fluorescence from porphyrin uptake by nonmalignant cells was lower in some measurements.
Each sputum sample was incubated at 37° C. with each of the porphyrins for either 6 or 24 hours and then evaluated for porphyrin uptake with a fluorescent microscope. At the 6 hour incubation period, the cells had begun to localize porphyrin; however, when the sputum cells were washed with PBS, the fluorescence diminished considerably. […] By 24 hours, by contrast, the uptale of porphyrin by sputum cells increased considerably. […] When the sputum cells that had been incubated for 24 hours were washed with PBS, the porphyrin remained attached to the cells. Longer incubation times were not investigated.
When porphyrin uptake in the test and control samples were compared (i.e., the number of sputum cells which fluoresced), the porphyrin uptake in the control samples was considerably lower than the uptake in the test samples. In addition, the fluorescence intensity of the few control cells that did floresce was lower than the fluorescence intensity of the test cells.

neoplastic sputum cells = test: TCPP fluorescence in PAP-stained neoplastic sputum cells; assay type: cell-based, human; details: after PAP staining
Excerpt: To assist in the identification of the neoplastic cells, sputum samples which had the greatest TCPP uptake were stained with PAP stain, a stain routinely used by cytologists to identify neoplastic cells. Cells identified as neoplastic using the PAP stain were marked and re-examined for TCPP uptake with a fluorescent microscope.

[1] = system: neoplastic sputum cells (squamous cell lung carcinoma, oat cell lung carcinoma, lung adenocarcinoma, advanced metastatic lymphoma); test: Fluorescence of sputum samples from lung cancer patients versus noncancerous patients; assay type: cell-based, human
Method: Studies were conducted using patients having confirmed squamous cell lung carcinoma, oat cell lung carcinoma, lung adenocarcinoma, and advanced metastatic lymphoma (lung metastasis) using procedures identical to those set forth above.

[2] = system: cancers of the lung grown in tissue cultures; test: TCPP localization in lung cancers grown in tissue culture; assay type: cell-based
squamous carcinoma cells = test: TCPP uptake in squamous carcinoma cells, flow cytometry; assay type: cell-based; details: squamous carcinoma cells grown in culture
[3] = system: human small cell (oat cell) lung carcinoma; test: TCPP uptake in small cell lung carcinoma cells; assay type: cell-based
[4] = system: normal human lung epithelial cells; test: TCPP uptake in normal lung epithelial cells; assay type: cell-based
[5] = Serum stability: loss of copper measured by fluorescence under simulated physiological conditions; assay type: in vitro ADME, human
Excerpt: An important consideration in the development of a radiopharmaceutical is the stability of the complex ^67 Cu TCPP to the loss of the radioisotope ^67 Cu in vivo.

[6] = Biodistribution in rats after intravenous injection; assay type: in vivo; details: normal rats (no cancer), 1.0×10^-6 gm
Excerpt: (§1) A sterile dose of ^67 CuTCPP (1.0×10^-6 gm) was intravenously injected into the tail vein of rats.

[7] = Biological half-life study; assay type: in vivo; details: rats, intravenous; exponential decay
Excerpt: as §1

[8] = 200 μg/ml, 37° C., four porphyrins compared

O=C(O)c1ccc(-c2c3nc(c(-c4ccc(C(=O)O)cc4)c4ccc([nH]4)c(-c4ccc(C(=O)O)cc4)c4nc(c(-c5ccc(C(=O)O)cc5)c5ccc2[nH]5)C=C4)C=C3)cc1 [TCPP, 5,10,15,20-tetrakis(4-carboxyphenyl)porphine]
contrast (brightness) between fluorescing malignant cells and background fluorescence (malignant sputum cells; [8]): greatest contrast (brightness)
number of cells fluorescing (malignant sputum cells; [8]): greatest number of cells fluorescing
porphyrin uptake (malignant sputum cells; [8]): significant porphyrin uptake in the malignant bodies
TCPP uptake by sputum processing procedure (malignant sputum cells; alcohol or alcohol/carbowax processing vs PBS or unprocessed): highest TCPP uptake
difference between the uptake of porphyrin by test and control sputum cells (malignant sputum cells; four porphyrins compared): most dramatic difference
TCPP fluorescence in neoplastic cells identified by PAP stain (neoplastic sputum cells): seen in every neoplastic cell
uptake of porphyrin in neoplastic sputum cells ([1]; carbowax and ethanol): greatest uptake of porphyrin in neoplastic sputum cells
number of fluorescent cells times fluorescence intensity, cancer patients vs noncancerous patients ([1]; sputum samples): 3-6 times
incubation time for TCPP localization ([2]; 24 hours in TCPP): more than adequate to maximize the TCPP localization
effect of fixing the cells prior to TCPP exposure on TCPP uptake ([2]; fixed prior to TCPP exposure): increased the TCPP uptake
effect of paraformaldehyde fixation on TCPP uptake ([2]; paraformaldehyde vs alcohol and carbowax): slightly increase the TCPP uptake
localization in cultured lung cancers ([2]; tissue culture): localizes in cancers of the lung grown in tissue cultures
detection by flow cytometry (squamous carcinoma cells): can easily be detected using flow cytometry
TCPP uptake compared with normal cells ([3]; vs normal cells): considerably higher than uptake in normal cells
TCPP absorption lower than in squamous cell line ([3]; vs squamous cell line): 2-3 times lower
TCPP concentration relative to autofluorescence or background ([4]; normal human lung epithelial cells): only slightly above autofluorescence or background levels
TCPP concentration relative to neoplastic cell lines ([4]; vs neoplastic cell lines examined): many times lower concentration

O=C([O-])c1ccc(C2=C3C=CC(=N3)C(c3ccc(C(=O)[O-])cc3)=C3C=CC(=N3)C(=c3ccc(=C([O-])[O-])cc3)c3ccc([n-]3)C(c3ccc(C(=O)[O-])cc3)=C3C=CC2=N3)cc1.[67Cu+2].[H+].[H+].[H+].[H+] [^67 CuTCPP]
conversion (loss of copper) ([5]; human serum albumin, EDTA and DTPA, up to 12 days, one percent is the limit of detection): less than one
transcomplexation with other metal ions ([5]; ultraviolet-visible spectroscopy): no detectable transcomplexation with other metal ions
uptake by normal lung tissue [6]: does not appear to take up significant quantities
major organs of localization ([6]; tail vein): liver and kidney
biological half-life [7]: 108 hours

uroporphyrin [reference compound]
porphyrin uptake (malignant sputum cells; [8]): least porphyrin uptake
